Test results reported in patent US20260007717A1, “ANTIMICROBIAL PEPTIDE COMPOUNDS AND METHODS OF USE” (priority 2022, published 2026).
In brackets after ≈: the same amount, converted by molar mass. Read-outs that look alike come from different tables or passages of the source. Positions of bridges follow the written chain, without caps; N, C: chain ends. Non-standard residues stand in square brackets, D forms with d. Residues, ends and D or L forms follow the SMILES beside them. *: point of attachment. Picolinoyl = O=C(c1ccccn1)*; Aib = CC(C)(N)C(=O)O

How the values were obtained:
E. coli = type: cell-based
P. gingivalis = type: cell-based
Protocol: (§1) Briefly, P. gingivalis is grown under anaerobic conditions to mid-log phase as per Dominy et al. […] The microtiter plate method outlined by Jansen (ibid) was used to measure MICs. Compounds and bacteria are added to wells of a microtiter plate and grown anaerobically (P. gingivalis) or with CO2 (L. salivarius) for 24 to 72 hours. Growth is measured with light scattering at 592 nm on a plate reader and absorbance plotted against μg/ml of drug in each well.

L. salivarius = type: cell-based
Protocol: as §1

A. baumannii = details: cited from earlier work
A. baumannii YQ4 [1] = details: COG1410 combined with polymyxin B
Protocol: The checkerboard method was performed to determine the fractional inhibitory concentration (FIC) index between COG1410 and other antimicrobials. Two-fold serial dilutions of antimicrobials and COG1410 were conducted and mixed in the 96-well plate. […] The experiments were conducted twice independently.

PDR A. baumannii YQ4 = experiment: Dynamic time-kill assay in PBS; details: 30 min
Protocol: For dynamic time-kill assay, the overnight culture of A. baumannii YQ4 was transferred to fresh broth with initial OD600 0.01 and grown to the logarithmic phase. 1 ml culture was harvested, washed twice with 1× phosphate-buffered saline (PBS, pH7.4), containing 8 mM NaH2PO4, 2 mM KH2PO4, 2.6 mM KCl, 136 mM NaCl), and finally suspended in 1 ml PBS with OD600 0.5, which approximately corresponds to 1×10^8 CFU/ml. […] 100 μl aliquot was respectively taken at 0, 5, 10 and 30 min, serially diluted in PBS and plated on LB agar. The CFUs were counted after incubation at 37° C. for 18 h. […] Three independent experiments were performed.

A. baumannii YQ4 [2] = experiment: ATP leakage assay; type: cell-based, Acinetobacter baumannii; details: 1×MIC, 30 min
Protocol: ATP leakage assay was performed using the Enhanced ATP Assay Kit of Beyotime (S0027) according to the manufacturer's manual. Briefly, the log-phase culture of A. baumannii YQ4 was prepared, washed and suspended in PBS as above. This suspension was exposed to 16 μg/ml COG1410, 16 μg/ml polymyxin B and 32 μg/ml tigecycline, respectively and incubated at 37° C. for 30 min. The supernatant was harvested and used for measurement of ATP levels. 100 μl of supernatant was mixed with 100 μl working solution and the chemiluminescence was measured by Biotek Synergy H1 plate reader. Untreated sample was set as negative control. The experiments were performed in triplicate.

A. baumanii YQ4 = experiment: Induction of resistance through serial passage; details: after 55 passages at sub-MIC
Protocol: The initial concentration of the tested compounds was set up as 1/32×MIC and doubled every 10 passages. The 1 ml of bacterial culture was stored in 10% sterile glycerol at −80° C. every 5 passages. The MIC value of collected cultures and original strains were measured through the micro-dilution method.

[3] = tested on: pan-drug resistant (PDR) Acinetobacter baumannii YQ4; details: A. baumannii YQ4, LB broth

In the case of CC(C)C[C@H](NC(=O)[C@H](CC(C)C)NC(=O)[C@H](CCCNC(=N)N)NC(=O)[C@H](CCCCN)NC(=O)C(C)(C)NC(=O)[C@H](CC(C)C)NC(=O)[C@H](CCCCN)NC(=O)[C@H](CCCNC(=N)N)NC(=O)[C@H](CC(C)C)NC(=O)C(C)(C)NC(=O)[C@H](CO)NC(=O)[C@H](C)NC(=O)c1ccccn1)C(N)=O [SEQ ID NO: 2, Picolinyl-AS-aib-LRKL-aib-KRLL-amide] (Picolinoyl-AS[Aib]LRKL[Aib]KRLL-NH2), the “MIC E. coli” value (E. coli) is reported as 32 µg/mL (≈ 21.7 µM), the “MIC P. gingivalis” value (P. gingivalis) is reported as 2 to 32 µg/mL and the “MIC L. salivarius” value (L. salivarius) is reported as 8 µg/mL (≈ 5.44 µM).

In the case of CC(C)C[C@@H]1NC(=O)[C@H](CC(C)C)NC(=O)[C@H](CCCNC(=N)N)NC(=O)[C@H](CCCCN)NC(=O)C(C)(C)NC(=O)[C@H](CC(C)C)NC(=O)[C@H](CCCCN)NC(=O)[C@H](CCCNC(=N)N)NC(=O)[C@H](CC(C)C)NC(=O)[C@@H](NC(=O)[C@H](CO)NC(=O)[C@H](C)NC(=O)c2ccccn2)CSSC[C@@H](C(N)=O)NC1=O [SEQ ID NO: 3, Picolinyl-AS-C-LRKL-aib-KRLL-C-amide] (Picolinoyl-ASCLRKL[Aib]KRLLC-NH2; disulfide 3-13), the “MIC P. gingivalis” value (P. gingivalis; anaerobic BHI broth) is reported as 2 µg/mL (≈ 1.26 µM).

In the case of CC(=O)N[C@@H](CC(C)C)C(=O)N[C@@H](CC(C)C)C(=O)N[C@@H](CCCNC(=N)N)C(=O)N[C@@H](CCCCN)C(=O)NC(C)(C)C(=O)N[C@@H](CC(C)C)C(=O)N[C@@H](CCCCN)C(=O)N[C@@H](CCCNC(=N)N)C(=O)N[C@@H](CC(C)C)C(=O)NC(C)(C)C(=O)N[C@@H](CO)C(=O)N[C@@H](C)C(N)=O [SEQ ID NO: 4, Acetyl-LLRK-aib-LKRL-aib-SA-CONH2] (Ac-LLRK[Aib]LKRL[Aib]SA-NH2), the “MIC E. coli” value (E. coli) is reported as 8 µg/mL (≈ 5.68 µM), the “MIC P. gingivalis” value (P. gingivalis) is reported as 32 µg/mL (≈ 22.7 µM) and the “MIC L. salivarius” value (L. salivarius) is reported as 8 µg/mL (≈ 5.68 µM).

With CC(=O)N[C@H](CC(C)C)C(=O)N[C@H](CC(C)C)C(=O)N[C@H](CCCNC(=N)N)C(=O)N[C@H](CCCCN)C(=O)NC(C)(C)C(=O)N[C@H](CC(C)C)C(=O)N[C@H](CCCCN)C(=O)N[C@H](CCCCN)C(=O)N[C@H](CC(C)C)C(=O)NC(C)(C)C(=O)N[C@H](CO)C(=O)N[C@H](C)C(N)=O [SEQ ID NO: 5, Acetyl-llrk-Aib-lkkl-Aib-sa-amide] (Ac-[dL][dL][dR][dK][Aib][dL][dK][dK][dL][Aib][dS][dA]-NH2) the “MIC E. coli” value (E. coli) was 16 µg/mL (≈ 11.6 µM) and the “MIC P. gingivalis” value (P. gingivalis) was 16 µg/mL (≈ 11.6 µM).

In the case of CC(=O)N[C@H](C)C(=O)N[C@H](CO)C(=O)NC(C)(C)C(=O)N[C@H](CC(C)C)C(=O)N[C@H](CCCNC(=N)N)C(=O)N[C@H](CCCCN)C(=O)N[C@H](CC(C)C)C(=O)NC(C)(C)C(=O)N[C@H](CCCCN)C(=O)N[C@H](CCCNC(=N)N)C(=O)N[C@H](CC(C)C)C(=O)N[C@H](CC(C)C)C(N)=O [SEQ ID NO: 6, Acetyl-as-aib-lrkl-aib-krll-amide] (Ac-[dA][dS][Aib][dL][dR][dK][dL][Aib][dK][dR][dL][dL]-NH2), the “MIC E. coli” value (E. coli) is reported as 8 µg/mL (≈ 5.68 µM), the “MIC P. gingivalis” value (P. gingivalis) is reported as 8 µg/mL (≈ 5.68 µM) and the “MIC L. salivarius” value (L. salivarius) is reported as 8 µg/mL (≈ 5.68 µM).

With CC(=O)N[C@@H](CC(C)C)C(=O)N[C@@H](CC(C)C)C(=O)N[C@@H](CCCNC(=N)N)C(=O)N[C@@H](CCCCN)C(=O)NC(C)(C)C(=O)N[C@@H](CC(C)C)C(=O)N[C@@H](CCCNC(=N)N)C(=O)N[C@@H](CCCCN)C(=O)N[C@@H](CC(C)C)C(=O)NC(C)(C)C(=O)N[C@@H](CO)C(=O)N[C@@H](C)C(=O)N[C@@H](CO)C(=O)NC(C)(C)C(=O)N[C@@H](CC(C)C)C(=O)N[C@@H](CCCNC(=N)N)C(=O)N[C@@H](CCCCN)C(=O)N[C@@H](CC(C)C)C(=O)NC(C)(C)C(=O)N[C@@H](CCCCN)C(=O)N[C@@H](CCCNC(=N)N)C(=O)N[C@@H](CC(C)C)C(=O)N[C@@H](CC(C)C)C(N)=O [SEQ ID NO: 7, Acetyl-LLRK-aib-LRKL-aib-SAS-aib-LRKL-aib-KRLL-CONH2] (Ac-LLRK[Aib]LRKL[Aib]SAS[Aib]LRKL[Aib]KRLL-NH2) the “MIC E. coli” value (E. coli) was 8 µg/mL (≈ 2.98 µM), the “MIC P. gingivalis” value (P. gingivalis) was 16 µg/mL (≈ 5.95 µM) and the “MIC L. salivarius” value (L. salivarius) was 8 µg/mL (≈ 2.98 µM).

In the case of CC(=O)N[C@@H](CC(C)C)C(=O)N[C@@H](CCCNC(=N)N)C(=O)N[C@H](C(=O)N[C@@H](CCCNC(=N)N)C(=O)N[C@@H](CS)C(=O)N[C@@H](C)C(=O)N[C@@H](CO)C(=O)NC(C)(C)C(=O)N[C@@H](CC(C)C)C(=O)N[C@@H](CCCNC(=N)N)C(=O)N[C@@H](CCCCN)C(=O)N[C@@H](CC(C)C)C(=O)NC(C)(C)C(=O)N[C@@H](CCCCN)C(=O)N[C@@H](CCCNC(=N)N)C(=O)N[C@@H](CC(C)C)C(=O)N[C@@H](CC(C)C)C(N)=O)C(C)C [SEQ ID NO: 8, Acetyl-LRVRCAS-aib-LRKL-aib-KRLL-CONH2] (Ac-LRVRCAS[Aib]LRKL[Aib]KRLL-NH2), the “MIC E. coli” value (E. coli) is reported as 8 µg/mL (≈ 3.93 µM), the “MIC P. gingivalis” value (P. gingivalis) is reported as 64 µg/mL (≈ 31.4 µM) and the “MIC L. salivarius” value (L. salivarius) is reported as 16 µg/mL (≈ 7.86 µM).

For CC(=O)N[C@@H](CC(C)C)C(=O)N[C@@H](CCCNC(=N)N)C(=O)N[C@H](C(=O)N[C@@H](CCCNC(=N)N)C(=O)N[C@@H](CC(C)C)C(=O)N[C@@H](C)C(=O)N[C@@H](CO)C(=O)NC(C)(C)C(=O)N[C@@H](CC(C)C)C(=O)N[C@@H](CCCCN)C(=O)N[C@@H](CCCCN)C(=O)N[C@@H](CC(C)C)C(=O)NC(C)(C)C(=O)N[C@@H](CCCCN)C(=O)N[C@@H](CCCNC(=N)N)C(=O)N[C@@H](CC(C)C)C(=O)N[C@@H](CC(C)C)C(N)=O)C(C)C [SEQ ID NO: 9, Acetyl-LRVRLAS-aib-LKKL-aib-KRLL-Amide] (Ac-LRVRLAS[Aib]LKKL[Aib]KRLL-NH2), the “MIC E. coli” value (E. coli) was 4 µg/mL (≈ 1.98 µM), the “MIC P. gingivalis” value (P. gingivalis) was 8 µg/mL (≈ 3.96 µM) and the “MIC L. salivarius” value (L. salivarius) was 4 µg/mL (≈ 1.98 µM).

With CC(=O)N[C@H](CC(C)C)C(=O)N[C@H](CC(C)C)C(=O)N[C@H](CCCNC(=N)N)C(=O)N[C@H](CCCCN)C(=O)NC(C)(C)C(=O)N[C@H](CC(C)C)C(=O)N[C@H](CCCCN)C(=O)N[C@H](CCCNC(=N)N)C(=O)N[C@H](CC(C)C)C(=O)NC(C)(C)C(=O)N[C@H](CO)C(=O)N[C@H](C)C(=O)N[C@H](CC(C)C)C(=O)N[C@H](CCCNC(=N)N)C(=O)N[C@@H](C(=O)N[C@H](CCCNC(=N)N)C(=O)N[C@H](CC(C)C)C(N)=O)C(C)C [SEQ ID NO: 11, Acetyl-llrk-aib-lkrl-aib-salrvrl-amide] (Ac-[dL][dL][dR][dK][Aib][dL][dK][dR][dL][Aib][dS][dA][dL][dR][dV][dR][dL]-NH2) the “MIC E. coli” value (E. coli) was 4 µg/mL (≈ 1.95 µM), the “MIC P. gingivalis” value (P. gingivalis; anaerobic BHI broth) was 8 µg/mL (≈ 3.91 µM) and the “MIC L. salivarius” value (L. salivarius; 5% CO2, BHI broth) was 16 µg/mL (≈ 7.82 µM).

In the case of CC(=O)N[C@@H](CC(C)C)C(=O)N[C@@H](CCCNC(=N)N)C(=O)N[C@H](C(=O)N[C@@H](CCCNC(=N)N)C(=O)N[C@@H](CC(C)C)C(=O)N[C@@H](C)C(=O)N[C@@H](CO)C(=O)N[C@@H](Cc1c[nH]cn1)C(=O)N[C@@H](CC(C)C)C(=O)N[C@@H](CCCNC(=N)N)C(=O)N[C@@H](CCCCN)C(=O)N[C@@H](CC(C)C)C(=O)N[C@@H](CCCNC(=N)N)C(=O)N[C@@H](CCCCN)C(=O)N[C@@H](CCCNC(=N)N)C(=O)N[C@@H](CC(C)C)C(=O)N[C@@H](CC(C)C)C(=O)N[C@@H](C)C(=O)N[C@@H](CO)C(=O)NC(C)(C)C(=O)N[C@@H](CC(C)C)C(=O)N[C@@H](CCCNC(=N)N)C(=O)N[C@@H](CCCCN)C(=O)N[C@@H](CC(C)C)C(=O)NC(C)(C)C(=O)N[C@@H](CCCCN)C(=O)N[C@@H](CCCNC(=N)N)C(=O)N[C@@H](CC(C)C)C(=O)N[C@@H](CC(C)C)C(N)=O)C(C)C [SEQ ID NO: 12, Acetyl-LRVRLASHLRKLRKRLLAS-aib-LRKL-aib-KRLL-CONH2] (Ac-LRVRLASHLRKLRKRLLAS[Aib]LRKL[Aib]KRLL-NH2), the “MIC E. coli” value (E. coli) is reported as 4 µg/mL (≈ 1.14 µM), the “MIC P. gingivalis” value (P. gingivalis) is reported as 16 µg/mL (≈ 4.55 µM) and the “MIC L. salivarius” value (L. salivarius) is reported as 64 µg/mL (≈ 18.2 µM).

In the case of SAAP-148, the LC99.9 (A. baumannii; 50% pooled plasma) is given as 12.8 UM and the LC99.9 (A. baumannii; PBS) is given as 1.6 µM.

With polymyxin B [reference compound] the “working concentration in the combination” value (A. baumannii YQ4 [1]) was 1 µg/mL, the “reduction in CFU” value (PDR A. baumannii YQ4; 1×MIC) was 2 log and the “reduction in CFU” value (PDR A. baumannii YQ4; 5×MIC) was 4 logs. The ATP leakage (A. baumannii YQ4 [2]) was “released more ATP compared to untreated cells”, the “increase of MIC” value (A. baumanii YQ4) was 64 fold and the MIC [3] was 16 µg/mL.
